Reference: patent US7704995B2 (Exelixis, Inc., priority 2003, dated 2010)
Where two headings read alike, the source gives them in different places.

Biological target: T1, Chk1 (Homo sapiens, UniProt O14757)
T1 construct: purchased Upstate Biotechnology
T1 sequence (O14757 1-476): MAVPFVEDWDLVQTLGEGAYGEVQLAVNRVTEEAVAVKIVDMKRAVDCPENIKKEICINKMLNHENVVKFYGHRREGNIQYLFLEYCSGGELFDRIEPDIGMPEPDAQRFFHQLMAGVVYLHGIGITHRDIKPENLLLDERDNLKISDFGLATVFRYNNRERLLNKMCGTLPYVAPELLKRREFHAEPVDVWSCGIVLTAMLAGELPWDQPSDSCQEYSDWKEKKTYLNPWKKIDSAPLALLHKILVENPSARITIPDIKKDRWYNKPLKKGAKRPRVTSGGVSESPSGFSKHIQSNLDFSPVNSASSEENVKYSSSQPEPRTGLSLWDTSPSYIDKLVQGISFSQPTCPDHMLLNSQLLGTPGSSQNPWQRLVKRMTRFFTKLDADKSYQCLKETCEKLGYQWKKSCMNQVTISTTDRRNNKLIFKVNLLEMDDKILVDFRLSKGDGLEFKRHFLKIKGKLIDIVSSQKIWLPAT
Experiment: Chk1 kinase assay: incorporation of γ-33P ATP into immobilized myelin basic protein
Assay type: biochemical
Conditions: read-out: Chk1 IC50
How it was run: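 Chk1 (10 nM) or Chk2 (20 nM) phosphorylated plate-immobilized myelin basic protein for 1 h at room temperature in Hepes pH 7.6 buffer with MgCl2, DTT, 1% DMSO, γ-33P ATP plus 10 μM (Chk1) or 30 μM (Chk2) unlabeled ATP. Bound radioactivity counted by scintillation; IC50 determined, Ki derivable from IC50.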

[1] = Table 11, Chk1 only, class symbols A-D

IC50	IC50 [1]	SMILES	also measured
50 to 1000 nM		CNC(=O)c1nc(-c2cccc(C(=O)NCc3ccc(F)cc3)c2)cnc1N [Example 103, 3-amino-6-[3-({[(4-fluorophenyl)methyl]amino}carbonyl)phenyl]-N-methylpyrazine-2-carboxamide]	
	< 50 nM	CCOc1cccc(-c2cnc(N)c(C(=O)N[C@H]3CCCNC3)n2)c1 [Example 962, 3-amino-6-[3-(ethyloxy)phenyl]-N-[(3S)-piperidin-3-yl]pyrazine-2-carboxamide]	
50 to 1000 nM		CCCN(CCOc1cccc(-c2cnc(N)c(C(=O)NC)n2)c1)CC1CC1 [Example 186, 3-amino-6-[3-({2-[(cyclopropylmethyl)(propyl)amino]ethyl}oxy)phenyl]-N-methylpyrazine-2-carboxamide]	
		CNC(=O)c1nc(-c2cccc(CNC3CCc4c(Cl)cccc43)c2)cnc1N (centres unmarked) [Example 487, 3-amino-6-(3-{[(4-chloro-2,3-dihydro-1H-inden-1-yl)amino]methyl}phenyl)-N-methylpyrazine-2-carboxamide]	IC50 (Table 11, Chk1 only): < 50 nM
< 50 nM		CNC(=O)c1nc(-c2cccc(C(=O)NCc3ccc(-c4cccs4)cc3)c2)cnc1N [Example 377, 3-amino-N-methyl-6-{3-[({[4-(2-thienyl)phenyl]methyl}amino)carbonyl]phenyl}pyrazine-2-carboxamide]	
		CNC(=O)c1cc(-c2cccc(CNC3CCc4cc(F)c(F)cc43)c2)cnc1N (centres unmarked) [Example 523, 2-amino-5-(3-{[(5,6-difluoro-2,3-dihydro-1H-inden-1-yl)amino]methyl}phenyl)-N-methylpyridine-3-carboxamide]	IC50 (Table 11, Chk1 only): 50 to 1000 nM
	< 50 nM	Nc1ncc(-c2cccc(NC(=O)Cc3ccc(Cl)cc3Cl)c2)nc1-c1nnc([C@H]2CCCNC2)[nH]1 [Example 809, N-[3-(5-amino-6-{5-[(3S)-piperidin-3-yl]-4H-1,2,4-triazol-3-yl}pyrazin-2-yl)phenyl]-2-(2,4-dichlorophenyl)acetamide]	
50 to 1000 nM		CNC(=O)c1nc(-c2cccc(OCCN3CCN(CCO)CC3)c2)cnc1N [Example 193, 3-amino-6-[3-({2-[4-(2-hydroxyethyl)piperazin-1-yl]ethyl}oxy)phenyl]-N-methylpyrazine-2-carboxamide]	
50 to 1000 nM		CNC(=O)c1nc(-c2cccc(CNC(=O)c3ncccc3O)c2)cnc1N [Example 335, 3-amino-6-[3-({[(3-hydroxypyridin-2-yl)carbonyl]amino}methyl)phenyl]-N-methylpyrazine-2-carboxamide]	
< 50 nM		CNC(=O)c1nc(-c2cccc(C(=O)NCc3cccc(I)c3)c2)cnc1N [Example 340, 3-amino-6-[3-({[(3-iodophenyl)methyl]amino}carbonyl)phenyl]-N-methylpyrazine-2-carboxamide]	
		C/C(=N\N1CCOCC1)c1nc(-c2cccc(C(=O)NCc3ccccc3)c2)cnc1N [Example 626, 3-{5-amino-6-[(1E)-N-morpholin-4-ylethanimidoyl]pyrazin-2-yl}-N-(phenylmethyl)benzamide]	IC50 (Table 11, Chk1 only): 1000 to 10000 nM
	50 to 1000 nM	Nc1ncc(-c2cccc(CNS(=O)(=O)c3ccccc3OC(F)(F)F)c2)nc1C(=O)N[C@H]1CCCNC1 [Example 917, 3-amino-N-[(3S)-piperidin-3-yl]-6-(3-{[({2-[(trifluoromethyl)oxy]phenyl}sulfonyl)amino]methyl}phenyl)pyrazine-2-carboxamide]	
50 to 1000 nM		CNC(=O)c1nc(-c2cccc(C(=O)NCC3CN(Cc4ccccc4)CCO3)c2)cnc1N (centres unmarked) [Example 204, 3-amino-N-methyl-6-{3-[({[4-(phenylmethyl)morpholin-2-yl]methyl}amino)carbonyl]phenyl}pyrazine-2-carboxamide]	
	< 50 nM	Cc1c(Cl)cccc1CNC(=O)c1cccc(-c2cnc(N)c(C(=O)N[C@H]3CCCNC3)n2)c1 [Example 1025, 3-amino-6-[3-({[(3-chloro-2-methylphenyl)methyl]amino}carbonyl)phenyl]-N-[(3S)-piperidin-3-yl]pyrazine-2-carboxamide]	
	< 50 nM	Nc1ncc(-c2cccc(C(=O)NCc3cc(Cl)ccc3Cl)c2)nc1C(=O)N[C@H]1CCCNC1 [Example 1015, 3-amino-6-[3-({[(2,5-dichlorophenyl)methyl]amino}carbonyl)phenyl]-N-[(3S)-piperidin-3-yl]pyrazine-2-carboxamide]	
		Nc1ncc(-c2cccc(C(=O)N[C@H]3CCc4ccccc43)c2)nc1C(=O)NC[C@H]1CCNC1 [Example 785, 3-amino-6-(3-{[(1S)-2,3-dihydro-1H-inden-1-ylamino]carbonyl}phenyl)-N-[(3S)-pyrrolidin-3-ylmethyl]pyrazine-2-carboxamide]	IC50 (Table 11, Chk1 only): < 50 nM

IC50	IC50 [1]	SMILES	also measured
≥ 10000 nM		NC(=O)c1nc(-c2ccc(F)cc2F)cnc1N [Example 18, 3-amino-6-(2,4-difluorophenyl)pyrazine-2-carboxamide]	
		CNC(=O)c1nc(-c2cccc(CN[C@@H](C)c3ccccc3)c2)cnc1N [Example 427, 3-amino-N-methyl-6-[3-({[(1S)-1-phenylethyl]amino}methyl)phenyl]pyrazine-2-carboxamide]	IC50 (Table 11, Chk1 only): 50 to 1000 nM
		CNC(=O)c1cc(-c2cccc(CNC3CCc4c(F)cc(F)cc43)c2)cnc1N (centres unmarked) [Example 520, 2-amino-5-(3-{[(4,6-difluoro-2,3-dihydro-1H-inden-1-yl)amino]methyl}phenyl)-N-methylpyridine-3-carboxamide]	IC50 (Table 11, Chk1 only): 50 to 1000 nM
	50 to 1000 nM	Nc1ncc(-c2cccc(O)c2)nc1C(=O)N[C@H]1CCNC1 [Example 811, 3-amino-6-(3-hydroxyphenyl)-N-[(3S)-pyrrolidin-3-yl]pyrazine-2-carboxamide]	
50 to 1000 nM		CNC(=O)c1nc(-c2cccc(C(=O)NCc3ccc(C)cc3C)c2)cnc1N [Example 214, 3-amino-6-[3-({[(2,4-dimethylphenyl)methyl]amino}carbonyl)phenyl]-N-methylpyrazine-2-carboxamide]	
≥ 10000 nM		CNC(=O)c1nc(-c2noc(-c3ccco3)n2)cnc1N [Example 75, 3-amino-6-(5-furan-2-yl-1,2,4-oxadiazol-3-yl)-N-methylpyrazine-2-carboxamide]	
50 to 1000 nM		CNC(=O)c1nc(-c2cccc(C(=O)NCC3CCN(Cc4ccccc4)C3)c2)cnc1N (centres unmarked) [Example 394, 3-amino-N-methyl-6-{3-[({[1-(phenylmethyl)pyrrolidin-3-yl]methyl}amino)carbonyl]phenyl}pyrazine-2-carboxamide]	
50 to 1000 nM		CNC(=O)c1nc(-c2cccc(NC(=O)c3cccc(OC)c3)c2)cnc1N [Example 105, 3-amino-N-methyl-6-[3-({[3-(methyloxy)phenyl]carbonyl}amino)phenyl]pyrazine-2-carboxamide]	
	< 50 nM	Nc1ncc(-c2cccc(OCCO)c2)nc1C(=O)N[C@H]1CCCNC1 [Example 904, 3-amino-6-{3-[(2-hydroxyethyl)oxy]phenyl}-N-[(3S)-piperidin-3-yl]pyrazine-2-carboxamide]	
	< 50 nM	Nc1ncc(-c2cccc(C(=O)NCc3ccc(F)c(C(F)(F)F)c3)c2)nc1C(=O)N[C@H]1CCCNC1 [Example 850, 3-amino-6-{3-[({[4-fluoro-3-(trifluoromethyl)phenyl]methyl}amino)carbonyl]phenyl}-N-[(3S)-piperidin-3-yl]pyrazine-2-carboxamide]	
50 to 1000 nM		CNC(=O)c1nc(-c2cccc(-c3nc4ccccc4[nH]3)c2)cnc1N [Example 407, 3-amino-6-[3-(1H-benzimidazol-2-yl)phenyl]-N-methylpyrazine-2-carboxamide]	
		CC(C)(C)OC(=O)N1CCC[C@H](NC(=O)c2nc(-c3cccc(C(=O)N[C@@H]4c5ccccc5C[C@@H]4O)c3)cnc2N)C1 [Example 777, 1,1-dimethylethyl (3S)-3-[({3-amino-6-[3-({[(1R,2S)-2-hydroxy-2,3-dihydro-1H-inden-1-yl]amino}carbonyl)phenyl]pyrazin-2-yl}carbonyl)amino]piperidine-1-carboxylate]	IC50 (Table 11, Chk1 only): < 50 nM
	< 50 nM	Cc1cc(CNC(=O)c2cccc(-c3cnc(N)c(C(=O)N[C@H]4CCCNC4)n3)c2)ccc1F [Example 1029, 3-amino-6-[3-({[(4-fluoro-3-methylphenyl)methyl]amino}carbonyl)phenyl]-N-[(3S)-piperidin-3-yl]pyrazine-2-carboxamide]	
50 to 1000 nM		CNC(=O)c1nc(-c2cccc(C(=O)NCc3ccc(OCCN4CCOCC4)cc3)c2)cnc1N [Example 324, 3-amino-N-methyl-6-(3-{[({4-[(2-morpholin-4-ylethyl)oxy]phenyl}methyl)amino]carbonyl}phenyl)pyrazine-2-carboxamide]	
50 to 1000 nM		CNC(=O)c1nc(-c2cccc(C(=O)NCCN3CCN(Cc4ccccc4)CC3)c2)cnc1N [Example 199, 3-amino-N-methyl-6-{3-[({2-[4-(phenylmethyl)piperazin-1-yl]ethyl}amino)carbonyl]phenyl}pyrazine-2-carboxamide]	
	< 50 nM	Nc1ncc(-c2cccc(C(=O)NCc3cccc(C(F)(F)F)c3F)c2)nc1C(=O)N[C@H]1CCCNC1 [Example 874, 3-amino-6-{3-[({[2-fluoro-3-(trifluoromethyl)phenyl]methyl}amino)carbonyl]phenyl}-N-[(3S)-piperidin-3-yl]pyrazine-2-carboxamide]	
